# Experiments:
# [1] = Stability in CDCl3 solution according to NMR spectra; format: physicochemical; settings: CDCl3, 25° C.
# Experimental: NMR spectra were recorded with a Varian UNITY INOVA 600 MHz spectrometer equipped with a cryoprobe in CDCl3 solution at 25° C. Chemical shifts are reported in ppm relative to residual solvent signal (δ(^1H) 7.25 ppm, δ(^13C) […]). Two-dimensional spectra recorded included DQF-COSY, NOESY, TOCSY, sensitivity-enhanced ^13C-HSQC and ^13C-^1H HMBC. Pulsed-field gradients were used for all ^13C correlation spectra. The NOESY mixing time was 800 ms, the TOCSY one 70 ms. ^13C-HMBC spectra were recorded with coupling evolution delay for the generation of multiple-bond correlations set to 62.5 ms. All 2D spectra were run with 4096*1024 points data matrix, giving τ2max=250 ms for ^1H nucleus in acquisition dimension and τ1max=100 ms for ^1H or τ1max=50 ms for ^13C for indirect dimension. Prior to Fourier transform the data matrix was zero-filled twice and multiplication by shifted sine-bell window function applied. For ^1H-^13C HMBC the magnitude spectra were calculated. Graphs from the spectra recorded are shown in drawing section FIGS. 15-27.
# [2] = system: male mice; assay: Mice sexual behaviour test (number of mounts); format: in vivo
Structure (SMILES),stability in CDCl3 solution according to the NMR spectra [1],"increase of number of mounts counted during the 3 hour period ([2]; subcutaneous 0.4 mg/kg x3 days, D4)","sexual activity (number of mounts over a 3 hour period) ([2]; subcutaneous in sun-flower oil x3 days, lowest dose (0.004 mg/kg))","sexual activity (number of mounts over a 3 hour period) ([2]; subcutaneous in sun-flower oil x3 days, two highest doses (0.4 and 0.04 mg/kg), D-4, D-7, D-14)","activity (Umnt) = 1/EC50 ([2]; subcutaneous x3 days, 7th day as basis)","time course of the effect on number of mounts ([2]; subcutaneous x3 days, tested D-4, D-7, D-14)","sexual activity (number of mounts over a 3 hour period) ([2]; subcutaneous in sun flower-oil x3 days, highest dose (4 mg/kg), all days tested (D-4, D-7, D-14))","sexual activity (number of mounts over a 3 hour period) ([2]; subcutaneous x3 days, two lower doses (0.4 and 0.04 mg/kg))"
COC(=O)CC1C2(C)CC34OC5(C)OC67C(CC(=O)OC6C3(OC(=O)C(C)C)C2OC(=O)C(C)C)C(C)(C(=O)c2ccoc2)CCC7(O5)C14C (stereo not drawn) [R306],stable during several weeks,about 3.5 fold,tendency of increase,significant increases,about 15 U/mg,"peaked at D7, while clear effects were seen also at D14",,
COC(=O)CC1C2(C)CC34OC5(C)OC67C(C(C(=O)C(C)C)C(=O)OC6C3(O)C2OC(C)=O)C(C)(C(OC(C)=O)c2ccoc2)CCC7(O5)C14C (stereo not drawn) [R310],consisted of two isomers which slowly interchanged,,,,,,Significant increases,significantly increased only on D-4

# Reference: US20100247593A1, “NOVEL COMPOUNDS AND PHARMACEUTICAL PREPARATIONS” (priority 2007, published 2010)
